Results reported in patent US12540118B2, “Dendrene amide compound, bactericide and use thereof” (Jiangsu Flag Chemical Industry Co., Ltd., priority 2020, dated 2026).

Columns and labels:
succinate dehydrogenase = target: T1, succinate dehydrogenase (Sus scrofa, UniProt A5GZW8+D0VWV4+Q007T0); experiment: Enzyme activity assay, succinate dehydrogenase (DCIP reduction); type: biochemical, porcine; settings: read-out: Inhibitors (10 μM, SQR)
T1 construct: isolated from porcine hearts; from tissue; host or cells: porcine heart
Procedure: The inhibitory activities of control agents and target compounds on succinate dehydrogenase are determined.
The enzyme used in this test example is succinate dehydrogenase, which is isolated from porcine hearts.
The test method comprises the following steps: The total volume of the system is 1.8 ml, and the system contained 100 mM Na2HPO4—NaH2PO4 buffer (pH=7.4), 0.3 mM EDTA, 20 mM sodium succinate, 53 μM DCIP (2,6-dichloroindophenol sodium), and 2 nM succinate dehydrogenase. Thermostatic waterbath at 23° C. and magnetic stirring at 600 rpm. The decrease in the light absorption of the substrate DCIP is monitored at a wavelength of 600 nm and experimental points in a linear range are collected. Control substrate consumption not more than 5% of the experimental points. The molar extinction coefficient of DCIP is 21 mM^−1 cm^−1. And calculating the reduction yield of the DCIP in the reaction time, fitting a linear slope, and deducting the baseline slope to obtain the initial reaction speed.

Sphaerotheca fuliginea = Sphaerotheca fuliginea potting method; type: in vivo; settings: Podosphaera fuliginea; 100 mg/L; read-out: Sphaerotheca fuliginea control rating
Procedure: The fungicidal activity of the control agents and target compounds are determined. The test and investigation method refers to SOP-SC-1101 sphaerotheca fuliginea potting method in disinfectant rolls written by KANGZHUO and GUBAOGEN in “Standard operation specification for testing biological activity of pesticides”.

Erysiphe graminis = Erysiphe graminis potting method; type: in vivo; settings: Blumeria graminis; 100 mg/L; read-out: Erysiphe graminis control rating
Procedure: The fungicidal activity of the control agents and target compounds are determined. The test and investigation method refers to SOP-SC-1116 Erysiphe graminis potting method in disinfectant rolls written by KANGZHUO and GUBAOGEN in “Standard operation specification for testing biological activity of pesticides”.

T1 sequence (Q0QF01 43-664 partner): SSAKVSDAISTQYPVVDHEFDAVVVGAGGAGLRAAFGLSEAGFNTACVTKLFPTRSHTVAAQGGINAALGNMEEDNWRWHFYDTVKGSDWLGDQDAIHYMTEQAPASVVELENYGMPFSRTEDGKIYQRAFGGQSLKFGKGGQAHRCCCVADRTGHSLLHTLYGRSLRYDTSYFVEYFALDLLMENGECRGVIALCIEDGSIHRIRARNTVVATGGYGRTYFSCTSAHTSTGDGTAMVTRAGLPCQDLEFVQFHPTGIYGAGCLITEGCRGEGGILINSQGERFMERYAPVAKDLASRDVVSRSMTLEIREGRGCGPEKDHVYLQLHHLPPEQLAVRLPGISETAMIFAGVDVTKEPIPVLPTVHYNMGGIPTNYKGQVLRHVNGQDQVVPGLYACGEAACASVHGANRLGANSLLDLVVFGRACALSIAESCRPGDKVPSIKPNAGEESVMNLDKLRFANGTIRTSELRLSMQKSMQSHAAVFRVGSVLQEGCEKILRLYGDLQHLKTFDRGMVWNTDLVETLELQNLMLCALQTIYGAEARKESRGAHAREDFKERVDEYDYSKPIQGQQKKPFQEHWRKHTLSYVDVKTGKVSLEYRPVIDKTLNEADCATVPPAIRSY
T1 sequence (Q007T0 29-280): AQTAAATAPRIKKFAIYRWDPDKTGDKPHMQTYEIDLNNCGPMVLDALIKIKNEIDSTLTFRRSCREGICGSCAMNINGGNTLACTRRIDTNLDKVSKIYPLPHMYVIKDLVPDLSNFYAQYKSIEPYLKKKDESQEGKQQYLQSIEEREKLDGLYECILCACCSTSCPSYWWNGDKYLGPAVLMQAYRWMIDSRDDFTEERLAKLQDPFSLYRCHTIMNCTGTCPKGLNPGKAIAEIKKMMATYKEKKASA
T1 sequence (D0VWV4 30-169): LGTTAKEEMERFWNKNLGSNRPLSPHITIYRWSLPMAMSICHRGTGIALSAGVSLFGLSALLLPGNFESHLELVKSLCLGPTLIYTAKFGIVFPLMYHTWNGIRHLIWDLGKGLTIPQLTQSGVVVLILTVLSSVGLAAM
T1 sequence (A5GZW8 57-159 limits assumed): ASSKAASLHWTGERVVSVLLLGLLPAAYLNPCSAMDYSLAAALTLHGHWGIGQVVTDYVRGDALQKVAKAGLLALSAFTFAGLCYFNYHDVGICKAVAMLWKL

SMILES	inhibition at 10 µM (succinate dehydrogenase) [%]	pest or weed control at 100 µg/mL (Sphaerotheca fuliginea) [%]	pest or weed control at 100 µg/mL (Erysiphe graminis) [%]
C=C(c1ccc(F)cc1F)C(C)N(C(=O)c1c(C(F)F)nn(C)c1F)C1CC1 (stereo not drawn) [Compound 64]	> 90	80 to 100	80 to 100
C=C(c1ccc(Cl)c(Cl)c1)C(C)N(C(=O)c1c(C(F)F)nn(C)c1F)C1CC1 (stereo not drawn) [Compound 65]	> 90	80 to 100	80 to 100
C=C(c1ccc(Br)cc1)C(C)N(C(=O)c1c(C(F)F)nn(C)c1F)C1CC1 (stereo not drawn) [Compound 66]	> 90	80 to 100	80 to 100
C=C(c1ccc(Cl)cc1Cl)C(C)N(C(=O)c1c(C(F)F)nn(C)c1F)C1CC1 (stereo not drawn) [Compound 67]	> 90	80 to 100	80 to 100
C=C(c1ccc(F)cc1)C(C)N(C(=O)c1c(C(F)F)nn(C)c1F)C1CC1 (stereo not drawn) [Compound 68]	> 90	80 to 100	80 to 100
C=C(c1cccc(OC)c1)C(C)N(C(=O)c1c(C(F)F)nn(C)c1F)C1CC1 (stereo not drawn) [Compound 69]	> 90	80 to 100	80 to 100
C=C(c1cccc(C)c1)C(C)N(C(=O)c1c(C(F)F)nn(C)c1F)C1CC1 (stereo not drawn) [Compound 70]	> 90	80 to 100	80 to 100
C=C(c1ccccc1C(F)(F)F)C(C)N(C(=O)c1c(C(F)F)nn(C)c1F)C1CC1 (stereo not drawn) [Compound 71]	> 90	80 to 100	80 to 100
C=C(c1ccccc1Cl)C(C)N(C(=O)c1c(C(F)F)nn(C)c1F)C1CC1 (stereo not drawn) [Compound 72]	> 90	80 to 100	80 to 100
C=C(c1c(Cl)cccc1Cl)C(C)N(C(=O)c1c(C(F)F)nn(C)c1F)C1CC1 (stereo not drawn) [Compound 73]	> 90	80 to 100	80 to 100
C=C(c1c(Cl)cc(Cl)cc1Cl)C(C)N(C(=O)c1c(C(F)F)nn(C)c1F)C1CC1 (stereo not drawn) [Compound 74]	> 90	80 to 100	80 to 100
C=C(c1cccc(Cl)c1Cl)C(C)N(C(=O)c1c(C(F)F)nn(C)c1F)C1CC1 (stereo not drawn) [Compound 75]	> 90	80 to 100	80 to 100
C=C(c1cc(Cl)ccc1Cl)C(C)N(C(=O)c1c(C(F)F)nn(C)c1F)C1CC1 (stereo not drawn) [Compound 76]	> 90	80 to 100	80 to 100
C=C(c1cc(F)ccc1F)C(C)N(C(=O)c1c(C(F)F)nn(C)c1F)C1CC1 (stereo not drawn) [Compound 77]	> 90	80 to 100	80 to 100
C=C(c1c(F)cccc1F)C(C)N(C(=O)c1c(C(F)F)nn(C)c1F)C1CC1 (stereo not drawn) [Compound 78]	> 90	80 to 100	80 to 100
C=C(c1c(F)cc(F)cc1F)C(C)N(C(=O)c1c(C(F)F)nn(C)c1F)C1CC1 (stereo not drawn) [Compound 79]	> 90	80 to 100	80 to 100
C=C(c1ccccc1Br)C(C)N(C(=O)c1c(C(F)F)nn(C)c1F)C1CC1 (stereo not drawn) [Compound 80]	> 90	80 to 100	80 to 100
C=C(c1cccc(Br)c1)C(C)N(C(=O)c1c(C(F)F)nn(C)c1F)C1CC1 (stereo not drawn) [Compound 81]	> 90	80 to 100	80 to 100
C=C(c1ccc(Br)cc1Br)C(C)N(C(=O)c1c(C(F)F)nn(C)c1F)C1CC1 (stereo not drawn) [Compound 82]	> 90	80 to 100	80 to 100
C=C(c1cc(Br)ccc1Br)C(C)N(C(=O)c1c(C(F)F)nn(C)c1F)C1CC1 (stereo not drawn) [Compound 83]	> 90	80 to 100	80 to 100
C=C(c1c(Br)cccc1Br)C(C)N(C(=O)c1c(C(F)F)nn(C)c1F)C1CC1 (stereo not drawn) [Compound 84]	> 90	80 to 100	80 to 100
C=C(c1c(Br)cc(Br)cc1Br)C(C)N(C(=O)c1c(C(F)F)nn(C)c1F)C1CC1 (stereo not drawn) [Compound 85]	> 90	80 to 100	80 to 100
